Test results reported in ChEMBL document CHEMBL1275484, “Rifampin and rifaximin resistance in clinical isolates of Clostridium difficile” (Antimicrob Agents Chemother, 2008).

How the values were obtained:
Clostridioides difficile = experiment: Antimicrobial activity against Clostridium difficile clinical isolate obtained from patient after completion of two courses of drug treatment; assay type: functional
[1] = Drug level in diarrhea patient feces at 400 mg, po every 12 hrs for 3 days; assay type: ADME, organism-based; settings: human, read-out: Drug uptake

CO[C@H]1/C=C/O[C@@]2(C)Oc3c(C)c(O)c4c(O)c(c5c(nc6cc(C)ccn65)c4c3C2=O)NC(=O)/C(C)=C\C=C\[C@H](C)[C@H](O)[C@@H](C)[C@@H](O)[C@@H](C)[C@H](OC(C)=O)[C@@H]1C [RIFAXIMIN]
MIC (Clostridioides difficile): > 256 µg/mL | concentration at 3 days [1]: 8e+06 ng/g
